# Measured values published in EP1463487B1, “LIPOSOMAL DELIVERY OF VITAMIN E BASED COMPOUNDS” (RESEARCH DEVELOPMENT FOUNDATION, priority 2001, dated 2003).
# Where two headings read alike, the source gives them in different places. Marks after values point to notes of the source that are not given here.
# Tests used:
# [1] = system: 66 cl.4-GFP cells; test: Visible lung metastases of 66 cl.4-GFP tumors in Balb/c mice; assay type: in vivo; design: Inhibition (%) of visible lung metastases: concentration or dose not given beside the values; conditions: liposomal formulations by aerosol; for Visible lung metastases/animal: 36 µg per animal per day, 19 or 21 days; for Inhibition (%) of visible lung metastases: versus control
# From the text: (§1) Metastastic lesions in the five lung lobes were counted visually at time of sacrifice. Fluorescent green micro-metastatic cancer cell colonies in the left lung lobe and lymph nodes were counted using a Nikon fluorescence microscope (TE-200) with a 20 x objective (200 x magnification) and Image-Pro Plus (version 4.1; Media Cybernetics, Silver Spring, MD) software associated with the microscope. Fluorescent lesions were separated into three size grouping: <5 µm , 5-10 µm and >10 µm.
# [2] = system: MDA-MB-435 GFP FL cells; test: Tumor growth of MDA-MB-435 GFP FL breast cancer cells in nude mice; assay type: in vivo, Nu/Nu athymic nude mice; conditions: day 35; α-TEA in liposome via aerosol; MSC 3ppm in water by gavage
# Method: Animals were given a total of 8 mg compound per day. […] Alpha-TEA liposome gavage reduced tumor growth by 68, 75, 78, 79 and 79% on days 27, 29, 31, 33, and 35, respectively (Fig. 15).
# Animals were gavaged 3ppm methylselenocysteine (MSC) in water, α-TEA in liposome via aerosol, or gavaged 10 mg/kg b.w. trans-resveratrol (t-RES) in first 1:1, EtOH: physiological saline, and starting at day 24, 6.5% EtOH and 93.5% Neobee oil. A combination group was treated with each of the above three compounds, and a control group was treated with aerosolized liposome, 100 µl water, and 50 µl of the t-Res solvent. Animals were treated seven days a week, for 35+ days.
# [3] = system: 66 cl.4-GFP cells; test: Tumor growth of 66 cl.4-GFP mammary tumor cells implanted in Balb/c mice; conditions: for tumor growth, determined by tumor volume, versus controls: liposomal preparations delivered by aerosol, 36 µg per animal per day; for reduced tumor growth: liposome aerosol, 36 µg compound per day
# Method: 66 cl.4-GFP cells were harvested by trypsinization, centrifuged, resuspended in McCoy's media, containing no supplements at a density of 2 X 10^5/100µl. Mice were injected in the inguinal area at a point equal distance between the 4th and 5th nipples on the right side using a 23 gauge needle.
# 50 mice were assigned (10 per group) to aerosol treatment, aerosol control, oral treatment, oral control, or to the no treatment group so that the average tumor volume for all groups were closely matched. […] Tumors were measured using calipers every other day, and volumes were calculated using the formula: volume (mm^3) = [width (mm)^2 X length (mm)] /2. Body weights were determined weekly.
# Balb/c mice were injected with 200,000 66 cl.4 GFP cells subcutaneous in the mammary fat pad area between the 4th and 5th nipple on the right side of the body.
# Mice are injected with 200,000 66cl.4 GFP murine mammary tumor cells as described on day 0. Treatments are initiated on day 9 when tumors reached 1-3 mm in size. […] Data represent the mean +/- Standard Error (SE), N = 10 mice for control and treatment groups.
# Balb/c mice were injected s. c. with 2 X 10^5 66 cl.4-GFP cells in the inguinal area between the 4th and 5th nipple on the right side of the body. When tumors reached 2 x 2-4 x 4 mm (9 days after tumor injection), mice were placed into 5 groups ((Group 1: untreated control, Group 2: liposome/aerosol control, Group 3: liposomal α-TEA aerosol treatment, Group 4: peanut oil/gavage control, Group 5: α-TEA in peanut oil/gavage treatment) of 10 mice/group) such that the mean tumor volume of each group was closely matched. Daily treatments were initiated on day 9 after tumor injection.
# Balb/c mice were injected with 200,000 66 cl.4 GFP cells subcutaneous in the mammary fat pad area between the 4th and 5th nipple on the right side of the body. […] Animals were treated with α-TEA in liposome, vitamin E succinate in liposome, or control liposome alone via aerosol, 7 days per week, for 21 days. Animals were given 75 mg compound via nebulization per day such that each animal received 36 µg compound per day.
# The size of the tumors, 9 - 21 days after injection of 200,000 66 cl.4 GFP cells between the 4th and 5th nipple on the right side of each mouse, is determined. Treatments are initiated on day 9 after tumor inoculation. Each group consists of n=10 +/- SE. Gavage Treatment = Treatments of 5 mg of α-TEA in ethanol and peanut oil (0.1 ml volume) are administered daily starting on day 9 after tumor inoculation and continuing through day 21. Gavage Control = Mice received peanut oil and ethanol alone (0.ml volume)/daily, starting on day 9 after tumor inoculation and continuing through day 21. Data (tumor size) are depicted as the mean +/- standard error for days 9, 11, 13, 15, 17, 19, and 21.
# Balb/c mice were injected with 200,000 66 cl.4 GFP cells subcutaneous in the mammary fat pad area between the 4th and 5th nipple on the right side of the body. […] Animals were treated with α-TEA in liposome, vitamin E succinate in liposome, or control liposome alone via oral gavage, 2 times per day, 7 days per week, for 21 days. Animals were given a total of 6 mg compound per day.
# [4] = system: 66 cl.4-GFP tumors; test: TUNEL assay for apoptosis in tumor sections in vivo; design: species or system Balb/c mice; conditions: for % Enhanement of TUNEL Positive Apopotic Cells/Area: liposomal formulation by aerosol, versus control
# From the text: Deparaffinized sections (5 µm) of tumor tissue were used to assess apoptosis using reagents supplied in the ApopTag In Situ Apoptosis Detection kit (Intergen, Purchase, NY) according to the manufacturer's instructions. Nuclei that stained brown were scored as positive for apoptosis and those that stained blue were scored as negative. At least sixteen 400X microscopic fields were scored per tumor. Data are presented as the mean ± S. E number of apoptotic cells counted in three separate tumors from each group. Pictures of tumor tissue were taken at 1000X magnification.
# [5] = system: CD31; test: CD31 immunohistochemistry of tumor sections (tumor blood vessel numbers); assay type: in vivo, Balb/c mice; conditions: for % Reduction of CD31 Blood Vessel Nos/Area: liposomal formulation by aerosol, versus control
# [6] = system: proliferation biomarker KI-67; test: KI-67 immunohistochemistry of tumor sections (cell proliferation); assay type: in vivo, Balb/c mice; conditions: for % Reduction of KI67: liposomal formulation by aerosol, versus control
# [7] = system: 66 cl.4-GFP cells; test: Apoptosis by morphological evaluation of DAPI-stained nuclei; assay type: cell-based, mouse; conditions: three days
# [8] = system: 66 cl.4-GFP cells; test: Fluorescent lymph node micrometastases of 66 cl.4-GFP tumors in Balb/c mice; assay type: in vivo
# From the text: as §1
# (§2) At sacrifice, the left lung lobe of each mouse of flash frozen and saves for detection of GFP expressing micrometatstic lesions via fluorescent microscopy.
# [9] = system: 66 cl.4-GFP cells; test: Fluorescent lung micrometastases of 66 cl.4-GFP tumors in Balb/c mice; assay type: in vivo
# From the text: as §1, §2
# [10] = after thirty minutes, cited from earlier work
# [11] = liposomal formulation delivered by aerosol, tumor sections
# [12] = Aerosol, in nebulizer per mouse: α-TEA 5 mg/d, 9NC 2 µg/d, combination 5 mg+2µg/d
# [13] = aerosol liposome delivery, 30 min
compound,measurement,setting,value
CC(=O)Oc1c(C)c(C)c2c(c1C)CCC(C)(CCCC(C)CCCC(C)CCCC(C)C)O2 (racemic) [dl-α tocopherol acetate],Visible lung metastases/animal,[1],0.3
same,Inhibition (%) of visible lung metastases,[1],82%
"Cc1cc(O)cc2c1O[C@](C)(CCC[C@H](C)CCC[C@H](C)CCCC(C)C)CC2 [RRR-delta tocopherol, RRR-delta-tocopherol]",Visible lung metastases/animal,[1],0.3
same,Inhibition (%) of visible lung metastases,[1],82%
"C[Se]C[C@H](N)C(=O)O [MSC, methylselenocysteine, reference compound]",tumor volume decrease from the control,[2],47.2%
"Cc1c(O)cc2c(c1C)O[C@](C)(CCC[C@H](C)CCC[C@H](C)CCCC(C)C)CC2 [RRR-γ tocopherol, RRR-γ-tocopherol]",Visible lung metastases/animal,[1],1.15
same,Inhibition (%) of visible lung metastases,[1],32%
same,"tumor growth, determined by tumor volume, versus controls",[3],enhanced tumor growth
"Cc1c(C)c2c(c(C)c1O)CCC(C)(CCCC(C)CCCC(C)CCCC(C)C)O2 (racemic) [dl-α-tocopherol, dl-alpha-tocopherol]",% Enhanement of TUNEL Positive Apopotic Cells/Area,[4],44%
same,% Enhanement of TUNEL Positive Apopotic Cells/Area,[4]; listed as dl-alpha-tocopherol,44%
same,TUNEL Positive Apopotic Cells/Area,[4]; [11],2.5
same,Visible lung metastases/animal,[1],0.1
same,Inhibition (%) of visible lung metastases,[1],94** %
same,% Reduction of CD31 Blood Vessel Nos/Area,[5],51%
same,% Reduction of CD31 Blood Vessel Nos/Area,[5]; listed as dl-alpha-tocopherol,51%
same,CD31 Blood Vessel Nos/Area,[5]; [11],112
same,% Reduction of KI67,[6],33%
same,% Reduction of KI67,[6]; listed as dl-alpha-tocopherol,33%
same,KI67 Inhibition of Proliferation (%),[6]; [11],40%
"Cc1c(C)c2c(c(C)c1O)CC[C@@](C)(CCC[C@H](C)CCC[C@H](C)CCCC(C)C)O2 [RRR-α tocopherol, RRR-α-tocopherol]",Visible lung metastases/animal,[1],1.7
same,Inhibition (%) of visible lung metastases,[1],0%
same,"tumor growth, determined by tumor volume, versus controls",[3],enhanced tumor growth
"CC(C)=CCC/C(C)=C/CC/C(C)=C/CC[C@]1(C)CCc2c(C)c(O)c(C)c(C)c2O1 [RRR-α-tocotrienol, RRR-alpha-tocotrienol]",Visible lung metastases/animal,[1],0.4
same,Inhibition (%) of visible lung metastases,[1],77%
"Cc1c(C)c2c(c(C)c1OC(=O)CCC(=O)O)CC[C@@](C)(CCC[C@H](C)CCC[C@H](C)CCCC(C)C)O2 [vitamin E succinate, RRR-α-tocopheryl succinate, reference compound]",apoptosis,[7]; 2.5 µg/ml,3%
same,apoptosis,[7]; 5 µg/ml,5%
same,apoptosis,[7]; 10 µg/ml,16%
same,apoptosis,[7]; 20 µg/ml,34%
same,effect on lymph node micrometastatic lesions (Fig. 14B),"[8]; liposome via gavage, 6 mg compound per day, 21 days",not effective in decreasing micrometastatic lung lesions
same,effect on lung metastasis,"[9]; liposomal formulation via gavage, 6 mg compound per day, 21 days",no effect on lung metastasis
same,reduced tumor growth,"[3]; 21 days, day 15",76%
same,reduced tumor growth,"[3]; 21 days, day 17",76%
same,reduced tumor growth,"[3]; 21 days, day 19",69%
same,reduced tumor growth,"[3]; 21 days, day 21",68%
same,tumor growth versus control liposome,"[3]; liposome gavage, 6 mg compound per day, 21 days",did not reduce tumor growth
CC[C@@]1(O)C(=O)OCc2c1cc1n(c2=O)Cc2cc3c([N+](=O)[O-])cccc3nc2-1 [9-nitrocamptothecin],Inhibition (%) Metastases Lymphnode,[8]; [12],60%
same,Inhibition (%) Metastases Lung,[9]; [12],55%
same,Inhibition (%) Tumor Growth,[3]; [12],58%
same,Levels of 9-nitrocamptothecin in the brain,[10]; [13],61 ng/g
same,Levels of 9-nitrocamptothecin in the liver,[10]; [13],192 ng/g
same,Levels of 9-nitrocamptothecin in the lungs,[10]; [13],310 ng/g
same,Levels of 9-nitrocamptothecin in the liver,"[10]; intramuscular delivery, 30 min",136 ng/g
same,Levels of 9-nitrocamptothecin in the lungs,"[10]; intramuscular delivery, 30 min",2 to 4 ng/g
same,Levels of 9-nitrocamptothecin in the brain,[10]; intramuscular delivery,0 ng/g
